Test results as given in paper PMC9386913 (Arthritis Research & Therapy, 2022).
Like-named read-outs stand apart in the source and are kept apart here.

Assays:
[1] = tested on: SEB/IL-2-stimulated PBMCs; experiment: Cytokine production in SEB/IL-2-stimulated PBMCs; format: cell-based, human; conditions: PBMCs from healthy donors and AS patients, SEB + IL-2 72 h
LPS-stimulated PBMCs [2] = conditions: cited from earlier work
[3] = Plasma pharmacokinetics in MAD study (LC-MS/MS); format: in vivo, human (healthy volunteers); conditions: for Cmax: human, plasma
Protocol: PK parameters were calculated via non-compartmental methodology using Phoenix version 7 or higher (Princeton, NJ).

LPS-stimulated monocytes = experiment: Cytokine secretion in LPS-stimulated monocytes; format: cell-based, human; conditions: LPS 100 ng/mL 4 or 24 h
Protocol: (§1) Culture supernatants were centrifuged, and the supernatants were collected and analyzed for selected cytokines and chemokines using Milliplex Magpix assays (catalog HCYTO – 60K; Millipore Sigma, Burlington, MA). Levels of proinflammatory cytokines TNF and MCP-1 for the monocytes and macrophages were quantified using specific ELISA kits (R&D, NJ, USA) according to the manufacturer’s recommendations. Data were processed using Milliplex Analyst, and significance was calculated using the one-way analysis of variance (ANOVA) with Dunnett’s post-test algorithms in GraphPad Prism version 5.01. PBMCs were isolated from buffy coat using the Ficoll gradient method. Monocytes were isolated using the […] Technologies Inc. kit (catalog number 19058; Vancouver, BC, Canada). […] Macrophages were then plated and allowed to acclimate for 24 h. […] Medium from the cultured macrophages was used for cytokine analysis using Magpix magnetic beads (Catalog HCYTO – 60K; Millipore Sigma, Burlington, MA). Cell pellets from the macrophage cultures were collected for western blot analysis using capillary electrophoresis to analyze the effect on TTP, with glyceraldehyde 3-phosphate dehydrogenase (GAPDH) used as the house-keeping protein in the capillary electrophoresis. Antibodies against total TTP (CST#7162 Rabbit Monoclonal antibody) and GAPDH (CST#5174 Rabbit Monoclonal antibody) were used to detect the respective proteins.

LPS-stimulated PBMCs [4] = experiment: Cytokine production in LPS-stimulated PBMCs; format: cell-based, human; conditions: 0.3, 1, and 3 μM
[5] = tested on: LPS-stimulated macrophages; experiment: Cytokine secretion in LPS-stimulated monocyte-derived macrophages; format: cell-based, human; conditions: LPS 100 ng/mL 4 or 24 h
Protocol: as §1

[6] = tested on: LPS-stimulated whole blood; experiment: Ex vivo LPS-stimulated whole blood cytokine/chemokine production (TruCulture) in dosed subjects; set-up: species or system human (healthy volunteers)
Protocol: Briefly, blood (1 mL) was drawn into the LPS-containing TruCulture tubes. The tubes were placed in a 37 °C block thermostat for 24 ± 1 h and then frozen at −70 °C. Media mixed with plasma were analyzed for TNF and other cytokine/chemokine levels. TNF inhibition in ex vivo LPS-stimulated blood was measured as a percentage change in TNF levels from baseline. Percentage change in other cytokines and chemokines in the ex vivo stimulation assay was also measured with respect to their baseline levels.

THP-1 cells = experiment: In vitro tachyphylaxis model: daily treatment of THP-1 cells, LPS-stimulated TNF; conditions: up to 14 days, 0.1 or 1 μM CC-99677 or 1 μM p38 inhibitors
[7] = Peripheral blood leukocyte and subtype counts in MAD study; conditions: 150 mg, pre-dose baseline through 14-day dosing (n = 5)
[8] = 150-mg dose level cohort, day 5
[9] = continuous dosing at 120 and 150 mg

CCOCc1cnc(Cl)nc1Oc1ccc2c(ccc3sc4c(c32)NC[C@@H](C)NC4=O)n1 [CC-99677]
IL-6 expression [1]: inhibited | IL-17A expression [1]: inhibited | MCP-1 expression [1]: inhibited | TNF expression [1]: inhibited | Inflammatory cytokine production including TNF, IL-6, and GM-CSF (LPS-stimulated PBMCs [2]; LPS-stimulated healthy donor PBMCs): inhibits inflammatory cytokine production | IL-1β inhibition in PBMCs after LPS stimulation (LPS-stimulated PBMCs [2]; PBMCs): no inhibition of IL-1β was observed | Dose proportionality of concentration and exposure ([3]; 10 to 150 mg once daily over 14 days): linear, dose-proportional increase in concentration and exposure | Day-to-day plasma accumulation ([3]; all 5 dose levels, minimal detectable plasma CC-99677 > 24 h after dosing): limited to no day-to-day plasma accumulation | Cmax ([3]; oral, 150-mg dose level, read-out: Geometric mean Cmax expressed as molar concentration): ~800 nM | Cmax ([3]; day 1, 10 mg oral, read-out: Geometric mean peak concentration (Cmax, CV%)): 20.5 ng/mL | Cmax ([3]; day 1, 30 mg oral, read-out: Geometric mean peak concentration (Cmax, CV%)): 63.4 ng/mL | Cmax ([3]; day 1, 60 mg oral, read-out: Geometric mean peak concentration (Cmax, CV%)): 150 ng/mL | Cmax ([3]; day 1, 120 mg oral, read-out: Geometric mean peak concentration (Cmax, CV%)): 269 ng/mL | Cmax ([3]; day 1, 150 mg oral, read-out: Geometric mean peak concentration (Cmax, CV%)): 257 ng/mL | IL-1β secretion (LPS-stimulated monocytes): concentration-dependent inhibition | IL-6 secretion (LPS-stimulated monocytes): concentration-dependent inhibition | TNF secretion (LPS-stimulated monocytes): strong concentration-dependent inhibition | GM-CSF production (LPS-stimulated PBMCs [4]; PBMCs from AS patients and healthy volunteers): inhibited GM-CSF in PBMCs from AS patients to similar levels as those seen in healthy volunteers | TNF production (LPS-stimulated PBMCs [4]; PBMCs from AS patients, 1 h pretreatment, LPS 50 ng/mL): concentration-dependent inhibition of TNF production | TNF secretion [5]: strong concentration-dependent inhibition | IL-1β secretion ([5]; more potent than in monocytes): concentration-dependent inhibition | IL-6 secretion ([5]; more potent than in monocytes): concentration-dependent inhibition | Onset of reduction of TNF production ([6]; 60-, 120-, and 150-mg dose cohorts): reduced as early as day 2 | Maximal TNF inhibition (percentage change from baseline) ([6]; 150-mg dose cohort): 70% | TNF inhibition maintained during the dosing period ([6]; 150-mg dose cohort, 14 days): approximately 70% | Maximal inhibition of IL-6 [6, 8]: 50% | Maximal inhibition of MIP-1α [6, 8]: 50% | TNF inhibition, ex vivo LPS-stimulated blood ([6]; all doses > 10 mg): inhibited TNF at all doses > 10 mg, and this inhibition was sustained until day 14 | MIP-1α production [6, 9]: inhibited with continuous dosing | MIP-1β production [6, 9]: inhibited with continuous dosing | LPS-stimulated TNF production under continued daily treatment (THP-1 cells): suppressed TNF production throughout the treatment period | Mean WBC, lymphocyte, monocyte, and neutrophil counts [7]: comparable to placebo
